For 34 molecules, EC50 results are on record in patent publication US7169931B2, “Cyclic compounds exhibiting thrombopoietin receptor agonism” (Shionogi & Co., Ltd., priority 2001, dated 2007).

This experiment has as its target T1, human TPO receptor (Homo sapiens, UniProt P40238).
T1 construct: expressed in transfected cells; host or cells: BaF-B03 (murine IL-3 dependent cell line)
T1 sequence (P40238 26-635): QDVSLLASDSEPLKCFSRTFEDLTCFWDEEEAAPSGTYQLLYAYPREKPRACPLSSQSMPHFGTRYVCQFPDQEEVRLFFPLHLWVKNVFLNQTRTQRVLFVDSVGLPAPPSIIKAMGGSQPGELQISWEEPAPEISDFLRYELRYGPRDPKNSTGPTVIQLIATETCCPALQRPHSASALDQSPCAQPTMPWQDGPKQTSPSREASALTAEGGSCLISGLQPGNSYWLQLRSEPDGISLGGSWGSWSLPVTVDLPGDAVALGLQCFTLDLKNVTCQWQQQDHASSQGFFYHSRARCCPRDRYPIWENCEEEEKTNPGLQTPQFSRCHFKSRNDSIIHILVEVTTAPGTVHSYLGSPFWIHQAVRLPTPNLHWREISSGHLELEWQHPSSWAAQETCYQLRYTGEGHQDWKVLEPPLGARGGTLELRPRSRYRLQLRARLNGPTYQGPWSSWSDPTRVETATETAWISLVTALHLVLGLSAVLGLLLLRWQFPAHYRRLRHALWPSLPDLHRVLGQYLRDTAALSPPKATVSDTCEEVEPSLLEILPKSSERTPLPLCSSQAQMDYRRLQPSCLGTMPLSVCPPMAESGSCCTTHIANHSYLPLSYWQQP
Kind of experiment: Thrombopoietic activity: proliferation of TPO dependent BaF/hTPOR cells (WST-1). It is filed as cell-based. Particulars: BaF/hTPOR cell line (BaF-B03 with human TPO receptor), without IL-3; 20 hours incubation + 4 hours WST-1, absorbance 450 nm; ED50 = half concentration of the concentration showing maximum thrombopoietic activity. Here is the method: BAF/hTPOR cells were maintained in RPMI medium and WEHI-3B conditioned medium as a source of murine interleukin-3 (IL-3). These cells were washed and resuspended in RPMI medium without a source of murine IL-3 and seeded into each well of 96-well microtiter plates at a density of 5×10^4 cells per well in the absence or presence of various concentration of hTPO or the present compound. After incubation at 37° C. for 20 hours in the 5% CO2 incubator, 10% WST-1 reagent (Takara Biomedicals, Japan) was added to each wells and the cells were further incubated for 4 hours. The absorbance at 450 nm was measured.
(In general: Formazan colour is commonly taken as a measure of viable cells.)
On to `O=C(Nc1nc(-c2cccc(C3CCCCC3)c2F)cs1)c1ccc2c(c1)CCC(C(=O)O)C2` (stereo not shown) [Compound B-12], for which the half-maximal effective concentration (EC50) was 74 nM.
With `O=C(Nc1nc(-c2cccc(C3CCOCC3)c2F)cs1)c1ccc2c(c1)CCC(C(=O)O)C2` (stereo not shown) [Compound B-13], the half-maximal effective concentration (EC50) stood at 342 nM.
Regarding `O=C(Nc1nc(-c2cccc(OC(F)(F)F)c2F)cs1)c1ccc2c(c1)CCC(C(=O)O)C2` (stereo not shown) [Compound B-14], the EC50 was found to be 42 nM.
The result for `O=C(Nc1nc(-c2cccc(CCc3ccccc3)c2F)cs1)c1ccc2c(c1)CCC(C(=O)O)C2` (stereo not shown) [Compound B-15] reads 59 nM; that for `CCCCOc1cccc(-c2csc(NC(=O)c3ccc4c(c3)CCC(C(=O)O)C4)n2)c1F` (stereo not shown) [Compound B-16], 98 nM.
`Cc1sc(NC(=O)c2ccc3c(c2)CCC(C(=O)O)C3)nc1-c1cccc(C(F)(F)F)c1` (stereo not shown) [Compound B-17]: the EC50 came out at 146 nM.
As for `O=C(Nc1nc(-c2cccc(C3CCCC3)c2F)cs1)c1ccc2c(c1)CCC(C(=O)O)C2` (stereo not shown) [Compound B-18], the EC50 turned out to be 72 nM.
For `CC(C)Cc1cccc(-c2csc(NC(=O)c3ccc4c(c3)CCC(C(=O)O)C4)n2)c1F` (stereo not shown) [Compound B-19], the EC50 is 48 nM.
With `CCCc1cccc(-c2csc(NC(=O)c3ccc4c(c3)CCC(C(=O)O)C4)n2)c1F` (stereo not shown) [Compound B-20], the concentration giving a half-maximal response (EC50) was 68 nM.
`CCCCc1cccc(-c2csc(NC(=O)c3ccc4c(c3)CCC(C(=O)O)C4)n2)c1F` (stereo not shown) [Compound B-21]: the EC50 was 60 nM.
The result for `COC(c1cccc(-c2csc(NC(=O)c3ccc4c(c3)CCC(C(=O)O)C4)n2)c1F)C(C)C` (stereo not shown) [Compound B-22] reads 64 nM; that for `COC(c1cccc(-c2csc(NC(=O)c3ccc4c(c3)CCC(C(=O)O)C4)n2)c1F)C1CCCCC1` (stereo not shown) [Compound B-23], 45 nM.
Next, `O=C(Nc1nc(-c2cccc(C(F)(F)F)c2)c(F)s1)c1ccc2c(c1)CCC(C(=O)O)C2` (stereo not shown) [Compound B-24]: 53 nM; `CCOC(c1cccc(-c2csc(NC(=O)c3ccc4c(c3)CCC(C(=O)O)C4)n2)c1F)C(C)C` (stereo not shown) [Compound B-25]: 38 nM; `CCCCCCCc1cccc(-c2csc(NC(=O)c3ccc4c(c3)CCC(C(=O)O)C4)n2)c1F` (stereo not shown) [Compound B-26]: 25 nM.
Consider `CCCCCCCCc1cccc(-c2csc(NC(=O)c3ccc4c(c3)CCC(C(=O)O)C4)n2)c1F` (stereo not shown) [Compound B-27], for which the concentration giving a half-maximal response (EC50) was 24 nM.
With `CCCCCCCCCCc1cccc(-c2csc(NC(=O)c3ccc4c(c3)CCC(C(=O)O)C4)n2)c1F` (stereo not shown) [Compound B-28], the concentration giving a half-maximal response (EC50) was 23 nM.
The result for `CCCc1c(Br)ccc(-c2csc(NC(=O)c3ccc4c(c3)CCC(C(=O)O)C4)n2)c1F` (stereo not shown) [Compound B-29] reads 49 nM; that for `CCOCCc1cccc(-c2csc(NC(=O)c3ccc4c(c3)CCC(C(=O)O)C4)n2)c1F` (stereo not shown) [Compound B-30], 142 nM; that for `O=C(Nc1nc(-c2cccc(Cc3ccccc3)c2F)cs1)c1ccc2c(c1)CCC(C(=O)O)C2` (stereo not shown) [Compound B-31], 104 nM.
As to `CCOC(C)(C)c1cccc(-c2csc(NC(=O)c3ccc4c(c3)CCC(C(=O)O)C4)n2)c1F` (stereo not shown) [Compound B-32], the EC50 came out at 96 nM.
As for `O=C(Nc1nc(-c2ccc(Cl)c(Cl)c2)cs1)c1ccc2cc(C(=O)O)sc2c1` [Compound C-2], the concentration giving a half-maximal response (EC50) worked out at 71 nM.
On to `O=C(Nc1nc(-c2ccc(Cl)c(Cl)c2)cs1)c1ccc2oc(C(=O)O)cc2c1` [Compound C-3], for which the EC50 was 995 nM.
Regarding `O=C(Nc1nc(-c2ccc(Cl)c(Cl)c2)cs1)c1ccc2cc(C(=O)O)oc2c1` [Compound C-4], the concentration giving a half-maximal response (EC50) came to 567 nM.
On to `Cc1c(C(=O)O)oc2ccc(C(=O)Nc3nc(-c4ccc(Cl)c(Cl)c4)cs3)cc12` [Compound C-5], for which the EC50 was 880 nM.
For `O=C(Nc1nc(-c2cccc(C(F)(F)F)c2F)cs1)c1ccc2sc(C(=O)O)cc2c1` [Compound D-1], the 50% effective concentration (EC50) came to 21 nM.
Next, `O=C(O)c1ccc2cc(C(=O)Nc3nc(-c4cccc(C(F)(F)F)c4F)cs3)ccc2c1` [Compound D-2]: 19 nM; `O=C(Nc1nc(-c2cccc(C(F)(F)F)c2F)cs1)c1ccc2c(c1)CC(C(=O)O)C2` [Compound D-3]: 370 nM.
As for `CCOC(=O)C1=Cc2ccc(C(=O)Nc3nc(-c4cccc(C(F)(F)F)c4F)cs3)cc2C1` [Compound D-4], the 50% effective concentration (EC50) is 250 nM.
The result for `O=C(O)C1=Cc2ccc(C(=O)Nc3nc(-c4cccc(C(F)(F)F)c4F)cs3)cc2C1` [Compound D-5] reads 210 nM; that for `CCOC(=O)C1Cc2cc(C(=O)Nc3nc(-c4cccc(C(F)(F)F)c4F)cs3)ccc2C1=O` [Compound D-6], 2540 nM; that for `O=C(O)C1=Cc2ccc(C(=O)Nc3nc(-c4cccc(C(F)(F)F)c4F)cs3)cc2CC1` [Compound D-7], 45 nM.
For the molecule `COC(=O)c1cc2ccc(C(=O)Nc3nc(-c4cccc(C(F)(F)F)c4F)cs3)cc2oc1=O` [Compound D-8], the EC50 was found to be 1930 nM.
In the case of `O=C(O)c1ccc2sc(C(=O)Nc3nc(-c4ccc(Cl)c(Cl)c4)cs3)cc2c1` [Compound E-1], the concentration giving a half-maximal response (EC50) is 16500 nM.

What is called EC50 is the concentration that produces a half-maximal response.
